Read-outs that look alike come from different tables or passages of the source.
Assays:
Assay type in all cases: biochemical
[1] = target: T1, α-synuclein seeded by E. coli CsgA (Homo sapiens, UniProt P37840); experiment: In vitro Thioflavin T assay of CsgA-seeded α-synuclein aggregation; details: compounds at 50 μM
T1 construct: made in house; host or cells: E. coli NEB 3016 slyD::kan (CsgA, pET11d); E. coli (α-synuclein)
Experimental: In Vitro Thioflavin T Assay to Determine the Effects of Compounds on CsgA-Seeded α-Synuclein Aggregation.
To induce over-expression of CsgA, 0.5 mM IPTG was added to cultures with an optical density at 600 nm (OD600) of 0.8-1, and induced cells were cultured at 37° C. for 1 hour prior to harvest via centrifugation. […] Buffers with imidazole were freshly prepared prior to the protein purification. Purified CsgA was passed through a 30 kDa molecular weight cut-off filter and through a desalting column. All steps of the CsgA purification in the absence of guanidine hydrochloride were conducted in rapid succession with as little delay as possible. […] The ammonium sulfate pellet was washed with an equal volume of 100 mM ammonium acetate in ethanol, pelleted via centrifugation, washed twice with ethanol, dried overnight, resuspended in 10 mM Tris pH 7.4, and passed through a 50 kDa cut-off column. The assay was conducted in 96-well black microplates with a single glass 2 mm bead per well, 40 μM ThioflavinT, 1% DMSO, 2 μM CsgA, 50 μM α-synuclein, 100 mM sodium chloride, 9.3 mM potassium phosphate pH 7.3, and compounds at 50 μM. […] The effect of compounds on CsgA-seeded α-synuclein aggregation in the assay was determined with data from 40 hours, following the plateau of the fluorescent signal in the untreated (no compound) control wells containing CsgA and α-synuclein. Fluorescence values for each compound with CsgA and α-synuclein were first adjusted by subtracting the average fluorescence of the compound in the absence of CsgA and α-synuclein.

human α-synuclein = target: T2, human α-synuclein (Homo sapiens, UniProt P37840); experiment: In vitro Thioflavin T assay of α-synuclein aggregation
T2 construct: made in house; host or cells: E. coli
Experimental: In Vitro Thioflavin T Assay to Determine the Effects of Compounds on α-Synuclein Aggregation.
The ammonium sulfate pellet was washed with an equal volume of 100 mM ammonium acetate in ethanol, pelleted via centrifugation, washed twice with ethanol, dried overnight, resuspended in 10 mM Tris pH 7.4, and passed through a 50 kDa cut-off column. The assay was conducted in 96-well black microplates with a single 2 mm bead in each well, 40 μM ThioflavinT, 1% DMSO, 50 μM α-synuclein, 100 mM sodium chloride, 9.3 mM potassium phosphate pH 7.3, 4.6 mM Tris pH 7.4 (added as the solvent for α-synuclein or independently for controls lacking α-synuclein), and compounds at 1 μM or 50 μM. […] Readings were performed hourly for up to 73 hours. The effect of compounds on α-synuclein aggregation in the assay was determined with data from 40 hours, following the plateau of the fluorescent signal in the untreated (no compound) control wells containing α-synuclein. Fluorescence values for each compound with α-synuclein were first adjusted by subtracting the average fluorescence of the compound in the absence of α-synuclein.

E. coli CsgA = target: T3, E. coli CsgA (Escherichia coli, UniProt P28307); experiment: In vitro ThioflavinT assay of CsgA aggregation
T3 construct: made in house; host or cells: E. coli NEB 3016 slyD::kan, pET11d
T3 sequence (P28307 23-151): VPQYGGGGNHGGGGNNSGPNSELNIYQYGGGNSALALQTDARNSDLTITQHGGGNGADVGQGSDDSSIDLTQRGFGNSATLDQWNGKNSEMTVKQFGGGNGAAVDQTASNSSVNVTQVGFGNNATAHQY
Experimental: In Vitro ThioflavinT Assay to Determine Effects of Compounds on CsgA Aggregation.
To assess the effects of compounds on aggregation of E. coli CsgA, a cell-free assay was performed using purified CsgA and Thioflavin T. In the assay, histidine-tagged CsgA was over-expressed in E. coli NEB 3016 slyD::kan cells harboring a pET11d vector containing csgA with the sequence for 6 histidine residues added to the C-terminus and without the Sec signal (amino acid 1-22) sequence. To induce over-expression of CsgA, 0.5 mM isopropyl β-D-1-thiogalactopyranoside (“IPTG”) was added to cultures with an optical density at 600 nm (OD600) of 0.8-1, and induced cells were cultured at 37° C. for 1 hour prior to harvest via centrifugation. Cells were lysed under denaturing conditions with 8 M guanidine hydrochloride in 50 mM potassium phosphate buffer pH 7.3, and CsgA was purified via immobilized-metal affinity chromatography by batch purification with Nickel-NTA agarose and a combination of low pressure and gravity flow through a disposable polypropylene column, including washes under low pressure applied manually via application of a syringe plunger to the column with 50 mM potassium phosphate buffer pH 7.3 followed by 12.5 mM imidazole in 50 mM potassium phosphate buffer pH 7.3, and elution by gravity flow with 125 mM imidazole in 50 mM potassium phosphate buffer pH 7.3. Buffers with imidazole were freshly prepared prior to the protein purification. Purified CsgA was passed through a 30 kDa molecular weight cut-off filter and passed through a desalting column. All steps of the CsgA purification in the absence of guanidine hydrochloride were conducted in rapid succession with as little delay as possible. The assay was conducted in 96-well black microplates with 40 μM ThioflavinT, 1% DMSO, CsgA at 20 μM, and compounds at 20 μM. Plates were incubated at 25° C. in a Tecan Nano F200 plate reader with excitation at 438 nm using a 439 nm filter with a bandwidth of 8 nm, and emission at 495 nm with a 490 nm filter with a bandwidth of 10 nm. During the assay, plates were shaken initially for 5 seconds and subsequently for 3 seconds prior to fluorescent readings. Readings were performed every 20 minutes for up to 24 hours. The effect of compounds on CsgA aggregation in the assay was determined with data from 18 hours, following the plateau of the fluorescent signal in the untreated (no compound) control wells containing CsgA. Fluorescence values for each compound with CsgA were first adjusted by subtracting the average fluorescence of the compound in the absence of CsgA. These adjusted values were normalized by dividing them by the average fluorescence in the no-compound (i.e., untreated) control wells containing CsgA […], and the average normalized fluorescence with the compound was expressed as a percentage of the average fluorescence observed in untreated controls.

[2] = 2 μM CsgA, 50 μM α-synuclein, ThT fluorescence at 40 hours, read-out: Inhibition of Aggregation CsgA-seeded αSyn
[3] = 2 μM CsgA, 50 μM α-synuclein, ThT fluorescence at 40 hours, read-out: Inhibition of Aggregation CsgA-seeded αSyn (compound activity range)
[4] = compounds at 50 μM, 50 μM α-synuclein, ThT fluorescence at 40 hours, read-out: Inhibition of Aggregation αSyn
[5] = compounds at 50 μM, 50 μM α-synuclein, ThT fluorescence at 40 hours, read-out: Inhibition of Aggregation αSyn (compound activity range)
[6] = read-out: Inhibition of Aggregation CsgA (compound activity range), compounds at 20 μM, CsgA at 20 μM, ThT fluorescence at 18 hours
[7] = read-out: Inhibition of Aggregation CsgA, compounds at 20 μM, CsgA at 20 μM, ThT fluorescence at 18 hours

Compound | Inhibition of Aggregation CsgA-seeded αSyn (compound activity range) ([1]; 2 μM CsgA, 50 μM α-synuclein, ThT fluorescence at 40 hours) | inhibition at 50 µM [1, 2] [%] | inhibition at 50 µM [1, 3] [%] | inhibition at 50 µM (human α-synuclein; [4]) [%] | inhibition at 50 µM (human α-synuclein; [5]) [%] | Effect on CsgA aggregation (in words) (E. coli CsgA; compounds at 20 μM) | inhibition at 20 µM (E. coli CsgA; [6]) [%] | inhibition at 20 µM (E. coli CsgA; [7]) [%] | Inhibition of Aggregation CsgA (compound activity range) (E. coli CsgA; compounds at 20 μM, CsgA at 20 μM, ThT fluorescence at 18 hours, 20 µM) | Effect on CsgA-seeded α-synuclein aggregation (in words) [1] | inhibition at 50 µM (human α-synuclein; read-out: Inhibition of Aggregation αSyn) [%] | inhibition at 50 µM (human α-synuclein; read-out: Inhibition of Aggregation αSyn (compound activity range)) [%]
CCCCCCCCCCCCOC(=O)c1cc(O)c(O)c(O)c1 [lauryl gallate, dodecyl 3,4,5-trihydroxybenzoate] | +% | 24 | 10 to 30 | 33 | 30 to 60 | did not appear to inhibit CsgA aggregation | -10 to 10 | 1 | – | – | – | –
COc1cc(O)ccc1O [methoxy-hydroquinone, 2-methoxybenzene-1,4-diol] | – | 80 | – | 100 | > 60 | – | 30 to 60 | 50 | (++) to (+++) | – | – | –
O=c1c(O)c(-c2ccc(O)cc2O)oc2cc(O)cc(O)c12 [morin, 2-(2,4-dihydroxyphenyl)-3,5,7-trihydroxychromen-4-one] | – | 70 | – | 88 | > 60 | – | > 60 | 69 | – | – | – | –
O=C(CCc1ccc(O)cc1)c1c(O)cc(O)cc1O [phloretin, 3-(4-hydroxyphenyl)-1-(2,4,6-trihydroxyphenyl)propan-1-one] | – | 21 | 10 to 30 | 46 | 30 to 60 | – | 10 to 30 | 18 | – | – | – | –
Cc1ccc(C(C)C)c(O)c1 [thymol, 5-methyl-2-(propan-2-yl)phenol] | – | 9 | -10 to 10 | – | – | little to no effect | -10 to 10 | -4 | – | little to no effect | -21 | < -10

From patent US11147792B2, “Inhibitors of microbially induced amyloid” (Axial Therapeutics, Inc, priority 2017, dated 2021)
